Like-named read-outs stand apart in the source and are kept apart here. Where no end group is shown, it is not given here. [ ]: non-standard residue; d: D form. pY = N[C@@H](Cc1ccc(OP(=O)(O)O)cc1)C(=O)O
Key:
[1] = target: T1, K109R GRB2 mutant (Homo sapiens, UniProt P62993, K109R); test: Microscale thermophoresis (MST) binding of synthetic peptides; conditions: 100 nM Atto488-labelled K109R GRB2
T1 construct: 6xHis; made in house
Description: (§1) FIGS. 3A-3I. Identification of GRB2 binding interfaces on MRE11, RPA70 and H2AX. (FIG. 3A) Schematic DDR binding-motifs (circles) on GRB2 within its domain architecture. Approximate non-canonical binding motifs are shown. (FIG. 3B) GST-SH domains pulldown of HEK293T cell-extracts followed by immunoblotting with indicated antibodies. (FIG. 3C) GST pulldown of bacterially expressed and purified human MRE11 with indicated GRB2 SH-domains. (FIG. 3D) OB1 fold binding motifs sequence alignment (top). MST isotherms of 50 nM Atto488-labelled RPA70 N-terminal domain (residue 1-120) binding to titrating concentrations (2 nM to 20 μM) of GRB2 or GRB2-derived OB1 peptide. The binding affinity (Kd) is shown. (FIG. 3E) Strep-Tactin precipitation of WT and DF/AA mutant from HEK293T cells that were either untreated (normal) or immediately after IR treated (5 Gy) and lysed, followed by western blot detection with the indicated antibodies. (FIG. 3F) MST-binding isotherms of an Atto488-labelled GRB2-SH2 domain (100 nM) binding to titrating concentrations (30 nM to 500 μM) of synthetic peptides derived from indicated proteins. (FIG. 3G) MST-isotherms of 100 nM Atto488-labelled K109R GRB2 mutant binding to titrating concentrations (30 nM to 200 μM) of synthetic peptides derived from the indicated proteins. Each isotherm was derived from the raw data and fitted according to the law of mass action to yield an apparent Kd. (FIG. 3H) Molecular docking overlay model of GRB2-SH2 domain with (PDB: 3wa4) and without (PDB: 1gri) showing S88 and S90 movement ˜4.7 Å when bound to phosphotyrosine peptide (PDB: 3wa4). K109R shown modeled, which could engage with the loop containing S88 and S90 residues. (FIG. 3I) Docking of pH2AX, MRE11 and pEGFR peptide into GRB2 SH2 domain pocket. The relative docking orientation of each peptide is shown.
(§2) Microscale thermophoresis. The MST method has been described in detail elsewhere (Seidel et al., 2013). The Kd values were measured using the Monolith NT.115 system (Nano Temper). Proteins were fluorescently labeled with Atto 488 according to the manufacturer's protocol. Labeling efficiency was determined to be 1:1 (protein:dye) by measuring the absorbance at 280 and 488 nm. A solution of peptides or proteins in 0.01 M HEPES (pH 7.4), 0.15 M NaCl and 0.005% v/v Surfactant P20 was serially diluted, typically from about 100 μM to 30 nM in the presence of 100 nM labeled protein. The samples were loaded into silica capillaries (Polymicro Technologies) after incubation at room temperature for 15 min. Measurements were performed at 22° C. using 20% LED power and 40% IR-laser power. Measurements were also carried out using 20% and 60% IR-laser power for comparison. Data analyses were performed using Nano Temper Analysis software using the Kd curve fitting function. Raw data were exported and fitting curves were generated using Prism 8 (GraphPad Software) for presentation.

[2] = target: T2, GRB2-SH2 domain (Homo sapiens, UniProt P62993); test: as above
T2 construct: 6xHis; made in house
Description: as §1, §2

[3] = target: T3, human MRE11 (residue 1-411) (Homo sapiens, UniProt P49959); test: Microscale thermophoresis (MST) binding of GRB2 WT and mutants; conditions: bacterially expressed proteins lacking ubiquitination
T3 construct: Human MRE11 core (residues 1-411) purification was described previously; 6xHis; made in house
T3 sequence (P49959 1-411): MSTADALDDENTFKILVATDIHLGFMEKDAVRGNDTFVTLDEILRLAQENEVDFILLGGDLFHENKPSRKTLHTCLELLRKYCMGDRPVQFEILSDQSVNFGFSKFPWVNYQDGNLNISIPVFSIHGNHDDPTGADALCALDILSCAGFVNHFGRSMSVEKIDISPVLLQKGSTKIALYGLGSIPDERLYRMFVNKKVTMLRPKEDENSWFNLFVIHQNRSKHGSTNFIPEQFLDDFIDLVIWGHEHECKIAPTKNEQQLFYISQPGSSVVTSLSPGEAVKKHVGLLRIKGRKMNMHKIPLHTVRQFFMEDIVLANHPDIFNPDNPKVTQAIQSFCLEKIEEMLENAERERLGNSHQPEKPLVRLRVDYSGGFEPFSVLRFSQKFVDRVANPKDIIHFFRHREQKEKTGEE
Description: FIGS. 2A-2H. Interactions of nGRB2 with DNA damage response factors. (FIG. 2A) Mass spectrometry identifies nuclear GRB2-associated proteins that are involved in DNA damage repair. Mean of coverage and unique peptides from three independent data sets are shown. (FIG. 2B) Strep-Tactin precipitation of Strep-GRB2 precipitated from HEK293T cells followed by western blotting with indicated antibodies. (FIG. 2C) GRB2 preferentially co-precipitate MRE11 without RAD50 or NBS1. Strep-GRB2 expressed HEK293T cells treated with or without 5 Gy IR were lysed immediately followed by Strep-Tactin precipitation and immunoblotting with indicated antibodies. (FIG. 2D) Immunoprecipitation of NBS1. HEK293T cells were co-transfected with RFP-GRB2 and GFP-NBS1 or GFP alone as control. Total cell lysates were precipitated with GFP-trap beads and immunoblotted with indicated antibodies. (FIG. 2E) Immunoprecipitation of RAD50. HEK293T cells expressing Flag-RAD50 or Flag-Ctrl were co-transfected with RFP-GRB2 for 24 h. Unperturbed cells were immunoprecipitated with Flag-M2 beads and immunoblotted with indicated antibodies. β-Actin was used as a loading control. (FIG. 2F) Immunoprecipitation of MRE11. […]
(§3) Microscale thermophoresis. […] The Kd values were measured using the Monolith NT.115 system (Nano Temper). […] Labeling efficiency was determined to be 1:1 (protein:dye) by measuring the absorbance at 280 and 488 nm. […]

[4] = target: T4, RPA70 N-terminal domain (residue 1-120) (Homo sapiens, UniProt P27694); test: Microscale thermophoresis (MST) binding; conditions: 50 nM Atto488-labelled RPA70N
T4 construct: 6xHis; made in house
Description: FIGS. 3A-3I. Identification of GRB2 binding interfaces on MRE11, RPA70 and H2AX. (FIG. 3A) Schematic DDR binding-motifs (circles) on GRB2 within its domain architecture. Approximate non-canonical binding motifs are shown. (FIG. 3B) GST-SH domains pulldown of HEK293T cell-extracts followed by immunoblotting with indicated antibodies. (FIG. 3C) GST pulldown of bacterially expressed and purified human MRE11 with indicated GRB2 SH-domains. (FIG. 3D) OB1 fold binding motifs sequence alignment (top). MST isotherms of 50 nM Atto488-labelled RPA70 N-terminal domain (residue 1-120) binding to titrating concentrations (2 nM to 20 μM) of GRB2 or GRB2-derived OB1 peptide. The binding affinity (Kd) is shown. (FIG. 3E) Strep-Tactin precipitation of WT and DF/AA mutant from HEK293T cells that were either untreated (normal) or immediately after IR treated (5 Gy) and lysed, followed by western blot detection with the indicated antibodies. (FIG. 3F) MST-binding isotherms of an Atto488-labelled GRB2-SH2 domain (100 nM) binding to titrating concentrations (30 nM to 500 μM) of synthetic peptides derived from indicated proteins. […]
as §3

T2 sequence (P62993 60-152 limits assumed): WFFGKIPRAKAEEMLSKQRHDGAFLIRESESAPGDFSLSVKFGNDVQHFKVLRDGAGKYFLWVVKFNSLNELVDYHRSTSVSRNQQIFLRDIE
T1 sequence (P62993 whole entry K109R): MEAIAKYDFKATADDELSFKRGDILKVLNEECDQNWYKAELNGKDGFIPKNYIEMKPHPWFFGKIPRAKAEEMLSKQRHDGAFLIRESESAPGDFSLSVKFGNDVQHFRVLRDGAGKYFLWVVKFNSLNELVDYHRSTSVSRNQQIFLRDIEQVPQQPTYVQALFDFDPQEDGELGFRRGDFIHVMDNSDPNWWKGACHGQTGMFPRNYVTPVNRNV
T4 sequence (P27694 1-120): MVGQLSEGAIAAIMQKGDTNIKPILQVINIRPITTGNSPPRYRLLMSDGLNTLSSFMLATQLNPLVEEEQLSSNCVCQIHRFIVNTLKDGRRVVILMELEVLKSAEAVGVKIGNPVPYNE

## CC(C)C[C@H](NC(=O)[C@H](CC(N)=O)NC(=O)CNC(=O)[C@H](CC(=O)O)NC(=O)[C@H](CCC(N)=O)NC(=O)[C@H](Cc1ccc(O)cc1)NC(=O)[C@H](CC(N)=O)NC(=O)[C@@H](NC(=O)[C@H](Cc1c[nH]c2ccccc12)NC(=O)[C@@H]1CCCN1)C(C)C)C(=O)N[C@@H](CC(N)=O)C(=O)O
[1]
  binding affinity to K109R GRB2 relative to WT GRB2: at least two orders of magnitude weaker

## CC[C@H](C)[C@H](NC(=O)[C@H](Cc1ccc(OP(=O)(O)O)cc1)NC(=O)[C@H](CCC(=O)O)NC(=O)[C@@H]1CCCN1C(=O)[C@@H](NC(=O)[C@@H]1CCCN1C(=O)[C@H](CC(C)C)NC(=O)[C@@H](N)Cc1ccccc1)C(C)C)C(=O)N[C@@H](CC(N)=O)C(=O)N[C@@H](CCC(N)=O)C(=O)N[C@@H](CO)C(=O)N[C@H](C(=O)N1CCC[C@H]1C(=O)N[C@@H](CCCCN)C(=O)N[C@@H](CCCNC(=N)N)C(=O)O)C(C)C [pEGFR]
[2]
  Kd: 7.2 ± 2 µM
[1]
  binding affinity to K109R GRB2 relative to WT GRB2: comparable to that of ^WTGRB2

## C[C@H](NC(=O)[C@H](CCCCN)NC(=O)[C@H](CCCCN)NC(=O)CNC(=O)CNC(=O)[C@H](CO)NC(=O)[C@@H]1CCCN1)C(=O)N[C@H](C(=O)N[C@@H](CCC(N)=O)C(=O)N[C@@H](C)C(=O)N[C@@H](COP(=O)(O)O)C(=O)N[C@@H](CCC(N)=O)C(=O)N[C@@H](CCC(=O)O)C(=O)N[C@@H](Cc1ccc(OP(=O)(O)O)cc1)C(=O)O)[C@@H](C)O [pH2AX peptide]
[2]; MST, 100 nM Atto488-labelled GRB2-SH2 domain, read-out: Kd, binding to GRB2-SH2 domain
  Kd: 2.8 ± 3.3 µM
[1]
  binding affinity to K109R GRB2 relative to WT GRB2: comparable to that of ^WTGRB2

## K109A mutant: ubiquitination-defective GRB2 K109A mutant, bacterially expressed
[3]
  dissociation constant (Kd), interaction with MRE11: intact MRE11 binding

## K109R mutant: GRB2 lysine-to-arginine mutant at K109, bacterially expressed
[3]
  dissociation constant (Kd), interaction with MRE11: no binding

## KYDFKATADDELSFKRG
[4]
  binding to RPA70N: interacted with RPA70N

## WVNpYQDGNLN (WVN[pY]QDGNLN)
[2]; MST
  effect of tyrosine phosphorylation on binding affinity for GRB2-SH2 domain: limited impact on its binding affinity

## non-ubiquitinated GRB2: bacterially expressed and purified wild-type growth factor receptor-bound protein 2
[4]
  binding to RPA70N: direct binding
